In patent US10189826B2, “Heterocyclic compounds and methods of use” (Medivation Technologies LLC, priority 2015, dated 2019):
Like-named read-outs stand apart in the source and are kept apart here.

Legend:
[1] = test system: SREBP-2 transcriptional activity (SREBP2 cleavage) in HepG2_LSSprom cells; test: Luciferase reporter driven by a SREBP-2 specific promoter in HepG2_LSSprom cells; assay type: cell-based; settings: read-out: SREBP2 Cleavage (IC50 μM) 24 h
Protocol: Dose response effects were measured of Compounds on the transcriptional activity of a Luciferase reporter driven by a SREBP-2 specific promoter in HepG2_LSSprom cells.
(§1) HepG2_LSSprom cells (SwitchGear Genomics, cat# C711010L) were cultured in DMEM with 10% of fetal bovine serum (FBS), supplemented with Puromycin (1 μg/mL), 1% Penicillin/Streptomycin (Pen-Strep), 37° C., humidified, 95% air and 5% CO2. Culture media was refreshed every 2 or 3 days. Cells were used between passage number 6-12.
For luminescence assays, cells were plated out at 20,000 cells/well in white 96 well plates in DMEM plus 10% FBS and 1% Pen-Strep without puromycin. After 1 day, cells were treated with Compound by diluting the drug in culture medium without FBS to a final concentration of 0.625, 1.25, 2.5, 3.75, 5 and 10 μM. Drug was prepared by dilutions of 10 mM stock aliquots. As control was used culture medium without FBS plus DMSO. Treatments with Compound were maintained for 6 h, or 24 h, until the luciferase assay was carried out.
After 6 h of treatments with Compound, the luciferase assay was performed. Briefly, the assay solution (buffer+substrate) was prepare just prior to use. To each well 100 μL of assay solution was added. The 96-well plate was then gently mix for 2 min and incubated for 30 min at RT protected from light. The luminescence was read using a Synergy 4 (Biotek) equipment recording luminescence with sensibility set up at 150.
(§2) Five independent experiments were carried out for both luciferase and cytotoxicity assay. In each experiment, three wells were use per condition and the results are represented as means±SEM.
For luciferase assay, Vehicle (no treatment) was taken as 100% of luciferase activity. This value represents the SREBP-2 transcriptional activity for the vehicle condition and was taken as 100% of SREBP-2 cleaved. The percentage for each treatment was calculated normalizing against the vehicle control. The graphics were made using the GraphPad Prism ver. 6.05 software. Half of maximal inhibitory concentration (IC50) of the effect of Compound on SREBP was obtain by nonlinear fit regression of mean normalized values vs. Compound concentration using the log(inhibitor) vs. response−Variable slope (four parameters) tool.

[2] = Cytotoxicity assay (LDH release) in HepG2_LSSprom cells; assay type: cell-based; settings: human, 24 h treatment, LDH release
Protocol: as §1
For cytotoxicity assays, cells were plated out at 20,000 cells/well in transparent 96 well plates in DMEM plus 10% FBS and 1% Pen-Strep without puromycin. After 1 day, cells were treated with Compound by diluting in culture medium without FBS to a final concentration of 0.625, 1.25, 2.5, 3.75, 5 and 10 μM. Compound was prepared by dilutions of 10 mM stock aliquots. As a negative control culture medium was used without FBS plus DMSO. As maximum LDH release control (Lysis control) a lysis buffer provided by the kit manufacturer was used. Treatments with Compound were maintained for 6 h, or 24 h, in cell culture medium without serum until the cytotoxicity assay was started.
The cytotoxicity assay was performed according to the manufacturer's instructions. As maximum LDH release control (Lysis control) 3 wells per plate were treated with 10 μL of lysis buffer 45 min before the treatment was over. Briefly, after the 6 h, or 24 h, of treatment, 50 μL of media from each well was transferred to a new 96-well plate. To the transferred media, 50 μL of reconstituted substrate mix was added. The plates were covered from light and incubated at RT for 10 min. Then, 50 μL of stop solution was added to each well. The plates were then read using a Synergy 4 (Biotek) equipment recording the absorbance at 490 nm.
as §2
For cytotoxicity assay, Lysis control was taken as 100%/o of LDH release. The vehicle values were taken as basal LDH release and were subtracted to all the treatments (including vehicle itself) having this value as 0% of LDH release. The LDH release for the treatments was calculated respect to the 100% of LDH release of Lysis control normalized against vehicle. All the negatives values were taken as 0% of cytotoxicity. The graphics were made using the Graph Prism ver. 6.05 software.

[3] = 24 h, 24 h treatment, HepG2_LSSprom cells

| SMILES | IC50 [1, 3] [µM] | IC50 ([1]; 24 h treatment, HepG2_LSSprom cells) [µM] | IC50 at 24 h ([2]; HepG2 LSSprom cells) [µM] | IC50 ([1]; 24 h) [µM] | IC50 at 24 h [2] [µM] |
| --- | --- | --- | --- | --- | --- |
| CC(C)(C)c1cc(-c2cc(-c3ccc(C(=O)Nc4ccccc4)cc3Cl)cs2)ccn1 [Compound 23, 4-[5-(2-tert-butylpyridin-4-yl)thiophen-3-yl]-3-chloro-N-phenylbenzamide] | – | – | > 10 | 0.48 | – |
| CC(C)(C)c1cc(-c2nc(-c3ccc(C(=O)N4CCC(F)(F)CC4)cc3Cl)c[nH]2)ccn1 [Compound 24, 2-tert-butyl-4-{4-[2-chloro-4-(4,4-difluoropiperidine-1-carbonyl)phenyl]-1H-imidazol-2-yl}pyridine] | > 3 | 2.7 | > 10 | – | – |
| CC(C)(C)c1cc(-c2cc(-c3ccc(C(=O)N4CCN(S(C)(=O)=O)CC4)cc3Cl)cs2)ccn1 [Compound 30, 1-{4-[5-(2-tert-butylpyridin-4-yl)thiophen-3-yl]-3-chlorobenzoyl}-4-methane sulfonylpiperazine] | 2.5 | – | > 10 | – | – |
| CC(C)N1CCc2cc(-c3csc(-c4ccnc(C(C)(C)C)c4)c3)ccc2C1=O [Compound 35, 6-[5-(2-tert-butylpyridin-4-yl)thiophen-3-yl]-2-(propan-2-yl)-1,2,3,4-tetrahydroisoquinolin-1-one] | 2.4 | – | > 10 | – | – |
| CCN1CCN(C(=O)c2ccc(-c3csc(-c4ccnc(C(C)(C)C)c4)c3)c(Cl)c2)CC1=O [Compound 39, 4-{4-[5-(2-tert-butylpyridin-4-yl)thiophen-3-yl]-3-chlorobenzoyl}-1-ethylpiperazin-2-one] | – | – | > 10 | 6.2 | – |
| CC(C)(C)c1cc(-c2csc(-c3ccc(C(=O)N4CCC(F)(F)CC4)cc3Cl)c2)ccn1 [Compound 40, 2-tert-butyl-4-{5-[2-chloro-4-(4,4-difluoropiperidine-1-carbonyl)phenyl]thiophen-3-yl}pyridine] | 0.15 | – | > 10 | – | – |
| CC(C)(C)c1cc(-c2cc(-c3ccc(C(=O)N4CCC4)cc3Cl)cs2)ccn1 [Compound 42, 4-{4-[4-(azetidine-1-carbonyl)-2-chlorophenyl]thiophen-2-yl}-2-tert-butylpyridine] | – | – | > 10 | 0.84 | – |
| CC(C)(C)c1cc(-c2cc(-c3ccc(C(=O)N4CC5(COC5)C4)cc3Cl)cs2)ccn1 [Compound 43, 6-{4-[5-(2-tert-butylpyridin-4-yl)thiophen-3-yl]-3-chlorobenzoyl}-2-oxa-6-azaspiro[3.3]heptane] | 3.8 | – | – | – | > 10 |
| CCOC(=O)NC1CCCN(C(=O)c2ccc(-c3csc(-c4ccnc(C(C)(C)C)c4)c3)c(Cl)c2)C1 (stereo not shown) [Compound 44, ethyl N-(1-{4-[5-(2-tert-butylpyridin-4-yl)thiophen-3-yl]-3-chlorobenzoyl}piperidin-3-yl)carbamate] | – | – | > 10 | 0.44 | – |
| CCOC(=O)N1CCN(C(=O)c2ccc(-c3csc(-c4ccnc(C(C)(C)C)c4)c3)c(Cl)c2)CC1 [Compound 45, ethyl 4-{4-[5-(2-tert-butylpyridin-4-yl)thiophen-3-yl]-3-chlorobenzoyl}piperazine-1-carboxylate] | – | – | > 10 | 1.8 | – |

Now from value to molecule, other results behind:

| IC50 [1, 3] [µM] | IC50 ([1]; 24 h treatment, HepG2_LSSprom cells) [µM] | SMILES | IC50 at 24 h ([2]; HepG2 LSSprom cells) [µM] | IC50 ([1]; 24 h) [µM] | IC50 at 24 h [2] [µM] |
| --- | --- | --- | --- | --- | --- |
| 0.82 | – | CC(C)(C)c1cc(-c2cc(-c3ccc(C(=O)N4CCOCC4)cc3Cl)cs2)ccn1 [Compound 22, 4-{4-[5-(2-tert-butylpyridin-4-yl)thiophen-3-yl]-3-chlorobenzoyl}morpholine] | > 3 | – | – |
| 0.62 | – | CC(C)(C)c1cc(-c2nc(-c3ccc(C(=O)N4CCCCC4)cc3Cl)c[nH]2)ccn1 [Compound 25, 2-tert-butyl-4-{4-[2-chloro-4-(piperidine-1-carbonyl)phenyl]-1H-imidazol-2-yl}pyridine] | > 10 | – | – |
| > 3 | – | CN1CCc2cc(-c3csc(-c4ccnc(C(C)(C)C)c4)c3)ccc2C1=O [Compound 26, 6-[5-(2-tert-butylpyridin-4-yl)thiophen-3-yl]-2-methyl-1,2,3,4-tetrahydroisoquinolin-1-one] | > 10 | – | – |
| 0.68 | – | CC(C)(C)OC(=O)N1CCN(C(=O)c2ccc(-c3csc(-c4ccnc(C(C)(C)C)c4)c3)c(Cl)c2)CC1 [Compound 27, tert-butyl 4-{4-[5-(2-tert-butylpyridin-4-yl)thiophen-3-yl]-3-chlorobenzoyl}piperazine-1-carboxylate] | > 10 | – | – |
| > 3 | – | CC(C)(C)c1cc(-c2cc(-c3ccc(C(=O)N4CCNCC4)cc3Cl)cs2)ccn1 [Compound 28, 1-{4-[5-(2-tert-butylpyridin-4-yl)thiophen-3-yl]-3-chlorobenzoyl}piperazine] | > 10 | – | – |
| 1.4 | – | CC(=O)N1CCN(C(=O)c2ccc(-c3csc(-c4ccnc(C(C)(C)C)c4)c3)c(Cl)c2)CC1 [Compound 29, 1-(4-{4-[5-(2-tert-butylpyridin-4-yl)thiophen-3-yl]-3-chlorobenzoyl}piperazin-1-yl)ethan-1-one] | > 10 | – | – |
| 0.21 | – | CC(C)N(C(=O)c1ccc(-c2csc(-c3ccnc(C(C)(C)C)c3)c2)c(Cl)c1)C(C)C [Compound 33, 4-[5-(2-tert-butylpyridin-4-yl)thiophen-3-yl]-3-chloro-N,N-bis(propan-2-yl) benzamide] | > 10 | – | – |
| 0.91 | – | CC(C)(C)OC(=O)NC1CCN(C(=O)c2ccc(-c3csc(-c4ccnc(C(C)(C)C)c4)c3)c(Cl)c2)CC1 [Compound 37, tert-butyl N-(1-{4-[5-(2-tert-butylpyridin-4-yl)thiophen-3-yl]-3-chlorobenzoyl}piperidin-4-yl)carbamate] | > 10 | – | – |
| 2.1 | – | CC(=O)NC1CCN(C(=O)c2ccc(-c3csc(-c4ccnc(C(C)(C)C)c4)c3)c(Cl)c2)CC1 [Compound 38, N-(1-{4-[5-(2-tert-butylpyridin-4-yl)thiophen-3-yl]-3-chlorobenzoyl}piperidin-4-yl) acetamide] | > 10 | – | – |
| 0.39 | – | CN(C(=O)c1ccc(-c2csc(-c3ccnc(C(C)(C)C)c3)c2)c(Cl)c1)c1ccccc1 [Compound 41, 4-[5-(2-tert-butylpyridin-4-yl)thiophen-3-yl]-3-chloro-N-methyl-N-phenyl benzamide] | > 10 | – | – |
| 1.3 | – | CC(C)(C)C(=O)N1CCN(C(=O)c2ccc(-c3csc(-c4ccnc(C(C)(C)C)c4)c3)c(Cl)c2)CC1 [Compound 46, 1-(4-{4-[5-(2-tert-butylpyridin-4-yl)thiophen-3-yl]-3-chlorobenzoyl}piperazin-1-yl)-2,2-dimethylpropan-1-one] | > 10 | – | – |
| 0.33 | – | CCN(CCNC(C)=O)C(=O)c1ccc(-c2csc(-c3ccnc(C(C)(C)C)c3)c2)c(Cl)c1 [Compound 47, N-[2-(1-{4-[5-(2-tert-butylpyridin-4-yl)thiophen-3-yl]-3-chlorophenyl}-N-ethylformamido)ethyl]acetamide] | > 10 | – | – |
| 0.26 | – | CC(C)(C)c1cc(-c2cc(-c3ccc(C(=O)N4CCCC(O)C4)cc3Cl)cs2)ccn1 (stereo not shown) [Compound 48, 1-{4-[5-(2-tert-butylpyridin-4-yl)thiophen-3-yl]-3-chlorobenzoyl}piperidin-3-ol] | > 10 | – | – |
| 0.31 | – | CC(C)(C)c1cc(-c2cc(-c3ccc(C(=O)N4CCC[C@@H](O)C4)cc3Cl)cs2)ccn1 [Compound 48a, (R)-(4-(5-(2-(tert-butyl)pyridin-4-yl)thiophen-3-yl)-3-chlorophenyl)(3-hydroxypiperidin-1-yl)methanone] | > 10 | – | – |
